# Laboratory results: US4372948A, “Derivative of saccharide and physiologically active agent containing the same” (Kureha Kagaku Kogyo Kabushiki Kaisha, priority 1980, dated 1983)
# System: foot pad reaction to sheep erythrocyte
# Experiment: Delayed-type intracutaneous reaction (foot pad reaction, cellular immunity)
# Format: in vivo, mouse (ICR-JCL)
# Conditions: same dose (250 mg/kg/day) intraperitoneally
# Protocol: In order to know the influence of the present compounds on the cellular immunity, a foot pad reaction test was carried out by using ICR-JCL mice as experimental animals and sheep erythrocyte as an antigen as follows:
# Sheep erythrocytes were suspended in a physiological saline solution at a concentration of 10% by volume and 0.2 ml of the suspension was injected into the caudal vein of each mouse for the primary sensitization, and after 7 days, a 40% by volume suspension of the erythrocytes in physiological saline solution was injected into the foot pad of the mouse for the challenge. The thickness of the injected foot pad was measured on the next day. One of the present compounds was administered intraperitoneally at dose of 250 mg/kg/day once a day for continued 5 days around the day of the first sensitization as a center.
compound,measurement,value
"CO[C@@]12[C@H](COC(N)=O)C3=C(C(=O)C(C)=C(N)C3=O)N1C[C@@H]1N[C@@H]12 [Mitomycin C, mitomycin C]",mortality in foot pad reaction test,died
